Laboratory results: ChEMBL document CHEMBL6177959, “Design, synthesis and evaluation of novel carboline-triazole hybrids as promising antimalarial agents” (Eur J Med Chem, 2025)
pIC50: −log10 of the molar value. Activity calls are given as the source filed them. No cut-off for these calls is given here.

Experiments:
[1] = Cytotoxicity against human HepG2 cells; type: toxicity, cell-based
Plasmodium falciparum [2] = test: Antimalarial activity against chloroquine-sensitive Plasmodium falciparum 3D7 infected in human erythrocytes assessed as reduction in parasite growth incubated for 72 hrs by SYBR green dye fluorimetric assay; type: functional, organism-based; conditions: 3D7, Erythrocyte
[3] = Selectivity index, ratio of CC50 for cytotoxicity against human HepG2 cells to IC50 for antimalarial activity against chloroquine-sensitive Plasmodium falciparum 3D7 infected in human erythrocytes assessed as reduction in parasite growth incubated for 72 hrs by SYBR green dye fluorimetric assay; type: toxicity, cell-based; conditions: read-out: Ratio CC50/IC50
Plasmodium falciparum [4] = test: Antimalarial activity against […] infected in human erythrocytes assessed as reduction in parasite growth incubated for 72 hrs by SYBR green dye fluorimetric assay; type: functional, organism-based; conditions: K1, Erythrocyte
Plasmodium falciparum [5] = test: Induction of morphological changes in asexual blood stage Plasmodium falciparum assessed as appearance of healthy rings at 1 uM incubated for 48 to 72 hrs by Geimsa-staining based light microscopic analysis; type: functional, organism-based; conditions: time 48-72 hrs
Plasmodium falciparum [6] = test: Induction of morphological changes in asexual blood stage Plasmodium falciparum assessed as appearance of compact structure at 1 uM incubated for 24 hrs by Geimsa-staining based light microscopic analysis; type: functional, organism-based
Plasmodium falciparum [7] = test: Induction of morphological changes in asexual blood stage Plasmodium falciparum assessed as lack of prominent periphery in trophozoites at 1 uM incubated for 24 hrs by Geimsa-staining based light microscopic analysis; type: functional, organism-based
Plasmodium falciparum [8] = test: Antimalarial activity against […] infected in human erythrocytes assessed as inhibition of parasitic growth at 5 uM incubated for 72 hrs by SYBR green dye fluorimetric assay relative to control; type: functional, K1, Erythrocyte; parameters: scale not given: the % may be the effect or the level left
Plasmodium falciparum [9] = test: Antimalarial activity against chloroquine-sensitive Plasmodium falciparum 3D7 infected in erythrocytes assessed as inhibition of parasite growth at 0.16 to 0.31 uM incubated for 72 hrs by SYBR green dye fluorimetric assay; type: functional, organism-based; conditions: Erythrocyte, dose 0.16-0.31 µM
Plasmodium falciparum [10] = test: Induction of morphological changes in asexual blood stage Plasmodium falciparum assessed as appearance of fragmentation at 1 uM incubated for 24 hrs by Geimsa-staining based light microscopic analysis; type: functional, organism-based
Plasmodium falciparum [11] = test: Antimalarial activity against […] infected in human erythrocytes assessed as inhibition of parasitic growth at 0.16 to 0.63 uM incubated for 72 hrs by SYBR green dye fluorimetric assay relative to control; type: functional, K1, Erythrocyte; parameters: scale not given: the % may be the effect or the level left; conditions: dose 0.16-0.63 µM
Plasmodium falciparum [12] = test: Induction of morphological changes in asexual blood stage Plasmodium falciparum assessed as appearance of schizonts at 1 uM incubated for 48 to 72 hrs by Geimsa-staining based light microscopic analysis; type: functional, organism-based; conditions: time 48-72 hrs
Plasmodium falciparum [13] = test: Induction of morphological changes in asexual blood stage Plasmodium falciparum assessed as appearance of condensed cytoplasm at 1 uM incubated for 24 hrs by Geimsa-staining based light microscopic analysis; type: functional, organism-based
[14] = Resistance index, ratio of IC50 for antimalarial activity against […] infected in human erythrocytes to IC50 for antimalarial activity against chloroquine-sensitive Plasmodium falciparum 3D7 infected in erythrocytes; type: functional
Plasmodium berghei = test: Antimalarial activity against GFP-luciferase expressing liver stage Plasmodium berghei sporozoites infected in human HepG2 cells assessed as inhibition of parasitic growth by luminescence based analysis; type: functional, organism-based

| Compound | CC50 [1] | pIC50 (Plasmodium falciparum [2]) | selectivity ratio at 72 h [3] | pIC50 (Plasmodium falciparum [4]) | Ratio IC50 [14] | also measured |
| --- | --- | --- | --- | --- | --- | --- |
| O=C(NCc1cn(-c2ccc(OC(F)(F)F)cc2)nn1)c1cc2c([nH]c3ccccc32)c(-c2ccc(Cl)cc2Cl)n1 | 187 µM | 5.81 | 121 |  |  |  |
| O=C(NCc1cn(-c2ccccc2)nn1)c1cc2c([nH]c3ccccc32)c(-c2ccccc2)n1 | 220 µM | 5.53 | 75.3 |  |  |  |
| C#CCNC(=O)c1cc2c([nH]c3ccccc32)c(-c2ccc(F)cc2)n1 | 167 µM | 5.46 |  |  |  |  |
| O=C(NCc1cn(-c2ccc(C(F)(F)F)cc2)nn1)c1cc2c([nH]c3ccccc32)c(-c2ccc(Cl)cc2Cl)n1 | 240 µM | 6.01 | 245 | 6.12 | 0.78 | Activity (Plasmodium falciparum [5]): inactive; Activity (Plasmodium falciparum [6]): Active; Irreversible Structural Deformations Observed; Activity (Plasmodium falciparum [7]): Active; Irreversible Structural Deformations Observed; Activity (Plasmodium falciparum [8]): 95.63%; Activity (Plasmodium falciparum [9]): Active; Activity (Plasmodium falciparum [10]): Active; Irreversible Structural Deformations Observed; Activity (Plasmodium falciparum [11]): 14%; Activity (Plasmodium falciparum [12]): inactive; Activity (Plasmodium falciparum [13]): Active; Irreversible Structural Deformations Observed |
| O=C(NCc1cn(-c2ccc(F)cc2)nn1)c1cc2c([nH]c3ccccc32)c(-c2ccc(C(F)(F)F)cc2)n1 | 71.7 µM | 6.68 | 341 | 6.21 | 2.9 |  |
| COc1ccc(-c2nc(C(=O)NCc3cn(-c4ccccc4)nn3)cc3c2[nH]c2ccccc23)cc1 | 79.5 µM | 5.80 | 50.6 |  |  |  |
| COc1cc([C@@H]2c3cc4c(cc3[C@H](O)[C@H]3COC(=O)[C@H]23)OCO4)cc(OC)c1OC [PODOFILOX] | 8.7 µM |  |  |  |  |  |
| Cc1ccc(-c2cn(-c3ccc(F)cc3)nn2)cc1 | 159 µM | 5.44 |  |  |  |  |
| CCc1ccc(-n2cc(CNC(=O)c3cc4c([nH]c5ccccc54)c(-c4ccc(C)cc4)n3)nn2)cc1 | 200 µM | 6.12 | 266 | 6.31 | 0.65 | Activity (Plasmodium falciparum [5]): inactive; Activity (Plasmodium falciparum [6]): Active; Irreversible Structural Deformations Observed; Activity (Plasmodium falciparum [7]): Active; Irreversible Structural Deformations Observed; Activity (Plasmodium falciparum [8]): 100%; Activity (Plasmodium falciparum [10]): Active; Irreversible Structural Deformations Observed; pIC50 (Plasmodium berghei): 5.12; Activity (Plasmodium falciparum [12]): inactive; Activity (Plasmodium falciparum [13]): Active; Irreversible Structural Deformations Observed |
| Cc1ccc(-c2nc(C(=O)NCc3cn(-c4ccccc4)nn3)cc3c2[nH]c2ccccc23)cc1 | 187 µM | 6.06 | 213 | 6.49 | 0.36 | Activity (Plasmodium falciparum [5]): inactive; Activity (Plasmodium falciparum [6]): Active; Irreversible Structural Deformations Observed; Activity (Plasmodium falciparum [7]): Active; Irreversible Structural Deformations Observed; Activity (Plasmodium falciparum [8]): 82.3%; Activity (Plasmodium falciparum [10]): Active; Irreversible Structural Deformations Observed; pIC50 (Plasmodium berghei): 5.32; Activity (Plasmodium falciparum [12]): inactive; Activity (Plasmodium falciparum [13]): Active; Irreversible Structural Deformations Observed |
| O=C(NCc1cn(-c2ccc(F)cc2)nn1)c1cc2c([nH]c3ccccc32)c(-c2ccccc2)n1 | 207 µM | 5.85 | 148 |  |  |  |
| Cc1ccc(-n2cc(CNC(=O)c3cc4c([nH]c5ccccc54)c(-c4ccc(Cl)cc4Cl)n3)nn2)cc1 | 222 µM | 5.60 | 88.8 |  |  |  |
| COc1ccc(-n2cc(CNC(=O)c3cc4c([nH]c5ccccc54)c(-c4ccccc4)n3)nn2)cc1 | 195 µM | 5.52 | 64 |  |  |  |
| COc1ccc(-c2nc(C(=O)NCc3cn(-c4ccc(F)cc4)nn3)cc3c2[nH]c2ccccc23)cc1 | 163 µM | 5.72 | 85.5 |  |  |  |
| COc1ccc(-n2cc(CNC(=O)c3cc4c([nH]c5ccccc54)c(-c4ccc(Cl)cc4Cl)n3)nn2)cc1 | 221 µM | 6.04 | 240 | 6.24 | 0.62 | Activity (Plasmodium falciparum [5]): inactive; Activity (Plasmodium falciparum [6]): Active; Irreversible Structural Deformations Observed; Activity (Plasmodium falciparum [7]): Active; Irreversible Structural Deformations Observed; Activity (Plasmodium falciparum [8]): 95.63%; Activity (Plasmodium falciparum [10]): Active; Irreversible Structural Deformations Observed; Activity (Plasmodium falciparum [12]): inactive; Activity (Plasmodium falciparum [13]): Active; Irreversible Structural Deformations Observed |
| O=C(NCc1cn(-c2ccccc2)nn1)c1cc2c([nH]c3ccccc32)c(-c2cccc(Cl)c2)n1 | 217 µM | 6.10 | 271 | 6.09 | 1.025 |  |
| O=C(NCc1cn(-c2cccc(C(F)(F)F)c2)nn1)c1cc2c([nH]c3ccccc32)c(-c2ccccc2)n1 | 200 µM | 5.83 | 136 |  |  |  |
| O=C(NCc1cn(-c2ccccc2)nn1)c1cc2c([nH]c3ccccc32)c(-c2ccc(C(F)(F)F)cc2)n1 | 159 µM | 6.43 | 430 | 6.12 | 2.03 |  |
| O=C(NCc1cn(-c2ccc(F)cc2)nn1)c1cc2c([nH]c3ccccc32)c(-c2cccc(Cl)c2)n1 | 227 µM | 6.39 | 553 | 6.18 | 1.61 |  |
| Cc1ccc(-c2nc(C(=O)NCc3cn(-c4ccc(F)cc4)nn3)cc3c2[nH]c2ccccc23)cc1 | 177 µM | 5.71 | 91.4 |  |  |  |
| O=C(NCc1cn(-c2cccc(C(F)(F)F)c2)nn1)c1cc2c([nH]c3ccccc32)c(-c2ccc(Cl)cc2Cl)n1 | 195 µM | 5.89 | 150 |  |  |  |
| O=C(NCc1cn(-c2ccc(F)cc2)nn1)c1cc2c([nH]c3ccccc32)c(-c2ccc(Cl)cc2Cl)n1 | 167 µM | 5.74 | 90.5 |  |  |  |
| O=C(NCc1cn(-c2ccc(F)cc2F)nn1)c1cc2c([nH]c3ccccc32)c(-c2ccc(Cl)cc2Cl)n1 | 144 µM | 5.77 | 84.5 |  |  |  |
| COc1ccc(-c2nc(C(=O)NCc3cn(-c4cccc(C(F)(F)F)c4)nn3)cc3c2[nH]c2ccccc23)cc1 | 200 µM | 6.35 | 444 | 6.19 | 1.44 |  |
| O=C(NCc1cn(-c2ccccc2)nn1)c1cc2c([nH]c3ccccc32)c(-c2ccc(Cl)cc2Cl)n1 | 214 µM | 5.69 | 105 |  |  |  |
| O=C(NCc1cn(-c2cc(C(F)(F)F)cc(C(F)(F)F)c2)nn1)c1cc2c([nH]c3ccccc32)c(-c2ccc(Cl)cc2Cl)n1 | 155 µM | 5.60 | 120 |  |  |  |
| COc1cc(NC(C)CCCN)c2ncccc2c1 (stereo not given) [PRIMAQUINE] |  |  |  |  |  | pIC50 (Plasmodium berghei): 5.60 |
